Read-outs that look alike come from different tables or passages of the source.
Columns and labels:
[1] = target: T1, P-glycoprotein (P-gp) (Homo sapiens, UniProt P08183); assay: Bidirectional transport of rhodamine123 through Caco-2 monolayers co-incubated with antimalarials (P-gp inhibitory properties); assay type: in vitro ADME
T1 construct: In-vitro Caco-2 cell monolayers were used here as a model for potential drug absorption related problems and P-gp mediated transport of drugs; endogenous in cells; host or cells: Caco-2 (human colon carcinoma, ATCC)
Protocol: The Caco-2 cells were seeded on 0.6 cm^2 […] Millipore PCF™ filter inserts at the cell density of 65,000 cells/cm^2 as done previously in the lab. Briefly, the cells were grown for 21–24 days to allow full maturation and formation of tight monolayers. The initial experiments were conducted in mid-40s passage cells and repeated in early 80s passage Caco-2 cells. The Trans epithelial electrical resistance (TEER) was measured immediately before and after the experiment using an epithelial voltage/ohm meter and an ENDOHM 12 chamber (World precision instruments, Sarasota, FL). TEER values were measured both before and after the study with readings above 300 Ω.cm^2 considered as acceptable for tight junctions. […] In order to maintain equivalent transport medium (HBSS/HBSS with inhibitor) level both outside and inside the chambers, 300 μL was used as medium in the apical chambers and 600 μL in the basolateral chambers. […] Drugs were co-incubated with MRCP, BCRP and ATP hydrolysis blockers to determine the involvement of other efflux mechanisms. Prior to the experiment, the transport medium, HBSS or HBSS with P-gp inhibitors were pre-incubated with the cells for 30 minutes. Following incubation, inserts were placed in new well plates and donor chamber is replaced with drug or drug with inhibitor and the receiver chamber with blank HBSS or HBSS with inhibitor. Transport medium was collected from the receiver chamber after stirring at time intervals of 30, 60, 90 and 120 minutes and was replaced with the same volume of fresh HBSS, or HBSS with inhibitor, when P-gp inhibitors were used in the study. At the end of the experiment 100 μL of medium was removed from the donor chamber in addition to medium collected from the receiver chamber during the study. The cells were then washed thoroughly in cold (4°C) PBS and cell membranes attached to the inserts were sonicated for 10 minutes in a sonicating water bath and centrifuged at 10,000 g for 10 minutes. Supernatant was frozen at -80°C until assayed. The Papp values of three well plates were determined using methods modified from Artursson’s group as described by Crowe and Lemaire.
CL.vol=Aa/{[Cd0×Vd−[Aa+(Ca×Vs)]−(Ac)×n/nfin]/Vd}
CL.vol = clearance volume (mL), n = time (min), Aa = amount in acceptor compartment at time n (pmols), Cd0 = concentration in donor compartment at time zero (nM), Vd = volume of the donor compartment (mL), Ca = concentration in acceptor compartment at the previous time point (nM), Vs = sample volume of previous time point (mL), Ac = amount of compound associated with the cells (pmol), Nfin = final time point (min). Papp = Apparent permeability (cm/sec) Rate of clearance (mL/min)=CL.vol / n Papp (cm/sec)=Rate of clearance / Surface area (cm^2)
The cleared volume was plotted against time and the slope of the regression line was divided by the surface area to obtain the Papp values. […] Mean Papp for Bas-Ap direction was divided by the Ap-Bas direction to obtain the efflux ratio and values above two were considered as drugs having true efflux transport.

[2] = Bidirectional transport (Papp, efflux ratio) of antimalarials through Caco-2 cell monolayers; assay type: in vitro ADME, human; details: human; for Papp at 120 min: Caco-2, Caco-2 monolayers
Protocol: (§1) The initial experiments were conducted in mid-40s passage cells and repeated in early 80s passage Caco-2 cells. […] In order to maintain equivalent transport medium (HBSS/HBSS with inhibitor) level both outside and inside the chambers, 300 μL was used as medium in the apical chambers and 600 μL in the basolateral chambers. […] Drugs were co-incubated with MRCP, BCRP and ATP hydrolysis blockers to determine the involvement of other efflux mechanisms. Prior to the experiment, the transport medium, HBSS or HBSS with P-gp inhibitors were pre-incubated with the cells for 30 minutes. Following incubation, inserts were placed in new well plates and donor chamber is replaced with drug or drug with inhibitor and the receiver chamber with blank HBSS or HBSS with inhibitor. Transport medium was collected from the receiver chamber after stirring at time intervals of 30, 60, 90 and 120 minutes and was replaced with the same volume of fresh HBSS, or HBSS with inhibitor, when P-gp inhibitors were used in the study. At the end of the experiment 100 μL of medium was removed from the donor chamber in addition to medium collected from the receiver chamber during the study. The cells were then washed thoroughly in cold (4°C) PBS and cell membranes attached to the inserts were sonicated for 10 minutes in a sonicating water bath and centrifuged at 10,000 g for 10 minutes. Supernatant was frozen at -80°C until assayed. […] CL.vol=[…].vol = clearance volume (mL), n = time (min), Aa = amount in acceptor compartment at time n (pmols), Cd0 = concentration in donor compartment at time zero (nM), Vd = volume of the donor compartment (mL), Ca = concentration in acceptor compartment at the previous time point (nM), Vs = sample volume of previous time point (mL), Ac = amount of compound associated with the cells (pmol), Nfin = final time point (min). […] The cleared volume was plotted against time and the slope of the regression line was divided by the surface area to obtain the Papp values. […] The method from Davis and colleagues was adopted with slight modifications. Separations were performed using an Apollo C18 (5 μm, 4.6x150mm) column attached to a matched guard column (5 μm, 4.6x5.5 mm). […] The injection volume was 40 μL and column oven was maintained at 35°C. The analytes were detected at 222 nm and the retention time was 5.6 minutes. Assay developed by Pussard and co-workers were used and slight modifications were done to adjust laboratory conditions. Separation was done using a Prevail C18 (3 μm, 4.6x150mm) column attached to a Direct-connect^TM universal column prefilter. The mobile phase consisted of 20 mM (w/v) KH2PO4 in deionized water at pH 3.0 and acetonitrile (82:18) v/v. […] The injection volume was 40 μL and column oven was maintained at 30°C. The analytes were detected at 343 nm with a retention time of 2.4 minutes. […] Separations were performed using an Apollo C18 (5 μm, 4.6x150mm) column attached to matched guard column (5 μm, 4.6x5.5mm). […] The injection volume was 40 μL and column oven was maintained at 30°C. The analytes were detected at 660 nm with a retention time of 3.8 minutes. A 40 μL sample was spiked with 5 μL 0.5 mM artemisinin internal standard. […] The pipettor was adjusted to the maximum volume (100 μL). […] Pre-treated samples were loaded into the tips by gently aspirating and discarding into the same vial. The process was repeated 10 times in order to increase binding efficiency of drugs to the OMIX 96 C4 matrix. […] The LC-MS method described by […] and co-workers were modified to suit the LC-MS-MS conditions. […] Wexford, Ireland) at 40°C. […] Quantitation was performed in multiple reactions monitoring, MRM mode, using DUIS (ESI^+ and APCI^+) ion sources. […] The optimized mass spectra were acquired with an interface voltage of 4.5 kV, a detector voltage of 1.0 kV, a heat block temperature of 500°C and a desolvation temperature of 160°C.

[3] = test system: Caco-2 cell monolayers; assay: as above; assay type: in vitro ADME, human
Protocol: as §1

[4] = set-up: method as in PMID 17337512; details: monkeys ref 14; cited from earlier work

T1 sequence (P08183 whole entry): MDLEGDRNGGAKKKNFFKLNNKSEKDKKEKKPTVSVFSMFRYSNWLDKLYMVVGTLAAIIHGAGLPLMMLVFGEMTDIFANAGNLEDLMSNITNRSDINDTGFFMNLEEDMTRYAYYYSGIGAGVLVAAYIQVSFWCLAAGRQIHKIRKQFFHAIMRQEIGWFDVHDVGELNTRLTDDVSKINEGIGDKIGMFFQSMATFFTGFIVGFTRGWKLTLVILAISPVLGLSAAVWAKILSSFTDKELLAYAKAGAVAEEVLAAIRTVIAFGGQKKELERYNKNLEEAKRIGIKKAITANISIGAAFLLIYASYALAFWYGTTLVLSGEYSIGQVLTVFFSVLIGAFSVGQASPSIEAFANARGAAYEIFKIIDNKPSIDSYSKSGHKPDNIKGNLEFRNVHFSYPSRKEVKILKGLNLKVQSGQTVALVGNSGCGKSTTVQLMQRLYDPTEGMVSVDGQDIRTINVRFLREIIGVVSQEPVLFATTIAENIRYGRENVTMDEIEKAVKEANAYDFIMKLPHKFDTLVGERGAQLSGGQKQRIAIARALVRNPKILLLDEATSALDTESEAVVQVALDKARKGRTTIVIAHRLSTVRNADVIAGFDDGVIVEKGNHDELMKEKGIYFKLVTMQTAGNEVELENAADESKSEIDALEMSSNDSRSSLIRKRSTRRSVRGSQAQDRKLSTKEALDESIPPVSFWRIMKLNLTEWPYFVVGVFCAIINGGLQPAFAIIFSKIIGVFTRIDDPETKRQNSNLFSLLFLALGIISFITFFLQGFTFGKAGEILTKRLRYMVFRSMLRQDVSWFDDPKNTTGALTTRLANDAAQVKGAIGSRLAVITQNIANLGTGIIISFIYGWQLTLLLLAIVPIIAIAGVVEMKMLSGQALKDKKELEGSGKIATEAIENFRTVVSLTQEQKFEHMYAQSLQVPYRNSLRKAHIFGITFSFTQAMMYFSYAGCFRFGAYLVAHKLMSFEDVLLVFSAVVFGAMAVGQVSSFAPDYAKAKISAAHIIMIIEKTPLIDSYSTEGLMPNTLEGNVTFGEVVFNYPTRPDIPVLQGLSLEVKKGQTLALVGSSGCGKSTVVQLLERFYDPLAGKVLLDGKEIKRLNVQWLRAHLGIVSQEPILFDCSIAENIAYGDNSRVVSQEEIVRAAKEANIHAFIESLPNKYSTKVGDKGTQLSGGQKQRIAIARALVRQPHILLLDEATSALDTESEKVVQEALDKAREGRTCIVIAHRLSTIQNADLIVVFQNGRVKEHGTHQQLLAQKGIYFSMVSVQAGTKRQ

C[C@H]1[C@H](N2CCS(=O)(=O)CC2)O[C@@H]2O[C@@]3(C)CC[C@H]4[C@H](C)CC[C@@H]1[C@@]24OO3 [AM, artemisone]
P-gp inhibitory properties ([1]; at 100 μM): did not exhibit P-gp inhibitory properties | P-gp inhibitory properties ([1]; at test concentrations): did not exhibit P-gp inhibitory properties | Papp at 120 min ([2]; drug alone, read-out: Ap-Bas directional Papp, range over concentrations tested): 37 to 60 ×10⁻⁶ cm/s | Papp at 120 min ([2]; drug alone, read-out: Bas-Ap directional Papp, range over concentrations tested): 35 to 47 ×10⁻⁶ cm/s | Papp at 120 min ([2]; read-out: permeability across the gastrointestinal epithelium (class)): > 25 ×10⁻⁶ cm/s | Papp at 120 min ([2]; summary in abstract, methylene blue depending on the direction of transport, read-out: permeability): ~50 ×10⁻⁶ cm/s | efflux ratio at 120 min, 10 µM ([2]; Caco-2, Conc (μM) + inhibitor (μM): 10, Bas-Ap divided by Ap-Bas): 0.8 | Papp at 120 min, 10 µM ([2]; Caco-2, Conc (μM) + inhibitor (μM): 10, first-named drug measured, read-out: Papp Ap-Bas): 59.6 ± 4.2 ×10⁻⁶ cm/s | Papp B→A at 120 min, 10 µM ([2]; Caco-2, Conc (μM) + inhibitor (μM): 10, first-named drug measured, read-out: Papp Bas-Ap): 46.9 ± 8.5 ×10⁻⁶ cm/s | efflux ratio at 120 min, 20 µM ([2]; Caco-2, Conc (μM) + inhibitor (μM): 20, Bas-Ap divided by Ap-Bas): 0.9 | Papp at 120 min, 20 µM ([2]; Caco-2, Conc (μM) + inhibitor (μM): 20, first-named drug measured, read-out: Papp Ap-Bas): 37 ± 4.7 ×10⁻⁶ cm/s | Papp B→A at 120 min, 20 µM ([2]; Caco-2, Conc (μM) + inhibitor (μM): 20, first-named drug measured, read-out: Papp Bas-Ap): 34.7 ± 2.7 ×10⁻⁶ cm/s | Net flow direction ([3]; Conc (μM) + inhibitor (μM): 10): Diffusion (0.25) | Net flow direction ([3]; Conc (μM) + inhibitor (μM): 20): Diffusion (0.69) | drug absorption predicted from Papp ([3]; based on FDA biopharmaceutical classification system): 100% | in-vivo bioavailability [4]: higher in-vivo bioavailability compared to artesunate
